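Grown in 96-well plates, cells were treated for 48 hours with each compound at five concentrations. Insufficient inhibition: endpoint recorded as highest concentration tested. GI50 marks 50% less growth. TGI marks complete inhibition of growth.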
Key:
Test in all cases: inhibition of tumour cell growth, NCI panel, 48 h
[1] = test system: M14 melanoma
[2] = test system: UACC-62 melanoma
[3] = test system: IGROV1 ovarian
[4] = test system: MOLT-4 leukemia
[5] = test system: NCI-H226 lung
[6] = test system: HCT-116 colon
[7] = test system: HCT-15 colon
[8] = test system: SW-620 colon
[9] = test system: SR leukemia

Structure (SMILES) | GI50 [1] [µM] | TGI [1] [µM] | GI50 [2] [µM] | TGI [2] [µM] | GI50 [3] [µM] | TGI [3] [µM] | GI50 [4] [µM] | TGI [4] [µM] | GI50 [5] [µM] | TGI [5] [µM] | GI50 [6] [µM] | TGI [6] [µM] | GI50 [7] [µM] | TGI [7] [µM] | GI50 [8] [µM] | TGI [8] [µM] | GI50 [9] [µM] | TGI [9] [µM]
O=C(/C=C/c1ccccc1)c1c[nH]c2ccccc2c1=O | 3.49 | 11.6 | 5.09 | 18.2 | 3.67 | 16.4 | 3.16 | 20.8 | 4.81 | 17.3 | 3.11 | 12.1 | 2.08 | 13.2 | 2.76 | 10 | 2.62 | > 100
Cc1csc(/C=N/NC(=O)c2nnn(-c3ccnc4c(C(F)(F)F)cccc34)c2C)c1 | > 100 | > 100 | 74.7 | > 100 | > 100 | > 100 | 48.8 | > 100 | 79 | > 100 | 36 | > 100 | 36.9 | > 100 | > 100 | > 100 | 19.3 | > 100
COc1cc2ccccc2c2cc([N+](=O)[O-])oc12 |  | 0.608 |  | 2.36 |  | 7.19 |  | 3.95 |  | 3.04 |  | 10.3 |  | 23.7 |  | 15 |  | 1.92
CC[C@@]1(OC(=O)CN)C(=O)OCc2c1cc1n(c2=O)Cc2cc3cc4c(cc3nc2-1)OCO4 | < 0.01 | 0.0439 | < 0.01 | 0.105 | < 0.0145 | 0.815 | < 0.01 |  | < 0.01 | 0.121 |  |  | 0.0291 | > 100 | < 0.01 |  | < 0.01 | 
Cc1cc(N2CCN(C)CC2)nc(NCc2cc(Nc3ccnc4cc(Cl)ccc34)ccc2F)n1 | 2 | 3.86 |  |  | 2.04 | 7.26 | 1.9 | > 100 | 7.88 | 55.4 | 1.5 | 3.3 | 2.21 | 8.36 | 1.85 | 4.01 | 1.94 | 4.89
COc1cccc(C(=O)Nc2ccc(CN3CCc4nc5cc(OC)c(OC)cc5cc43)cc2)c1 | 3.76 | 16.4 | 7.13 | 21.3 | 5.15 | > 100 | 2.85 | 10.7 | 5.69 | > 100 | 3.12 | 12.1 | 3.32 | 19.3 | 4.16 | 19.4 | 3.07 | 9.64
N#CC(C#N)=Cc1c(-c2ccccc2)[nH]c2ccccc12 | 1.88 | > 56.6 | 2.24 | > 46.5 | 0.743 | 31.9 | 13.3 | > 75.1 | 3.84 | > 41.4 | 2.21 | > 100 | 0.906 | > 47.3 | 0.523 | > 35.1 | > 100 | > 100
O=S(=O)(Nc1cc(Br)c(O)c2ccccc12)c1ccc(F)cc1 | 2.42 | 6.12 | 1.92 | 3.88 | 2.59 | 5.51 | 2.31 | 5.33 | 18.3 | 38.9 | 2.33 | 6.44 | 2.95 | 11.3 | 2.45 | 7.65 | 4.24 | 34.3
NC1=NC(c2ccc(Cl)cc2)N(c2ccc(S(=O)(=O)Nc3ncccn3)cc2)C(N)=N1 (stereo not drawn) |  | > 100 |  | > 100 |  | > 100 |  | > 100 |  | > 100 |  | > 100 |  | > 100 |  | > 100 |  | > 100
COc1cc(/C=N/Nc2ncnc3c2cnn3C(C)C)ccc1O | 11.8 | > 25 | 6.98 | > 20.9 | 7.56 | 20.5 | 6.53 | > 20.7 | 9.27 | > 25 | 8.02 | > 25 | 11 | > 25 | 8.41 | > 25 |  | 
Cc1nc2ccccc2c(=O)n1/N=C(\N=Nc1cc(Cl)ccc1Cl)c1cccc(-c2ccco2)c1 |  | > 100 |  | > 100 |  | > 100 |  | > 100 |  | > 100 |  | > 100 |  | > 100 |  | > 100 |  | 
Cc1onc(-c2c(F)cccc2Cl)c1-c1ncc(-c2ccc(Cl)cc2)o1 | 5.67 | > 100 | 2.7 | > 100 | 6.44 | > 100 | 4.61 | > 100 | 5.93 | > 100 | 2.76 | > 100 | 2.89 | > 100 | 4.35 | > 100 | 2.92 | 31.3
Cc1cc2cccnc2c2ncccc12 | 1.26 | 5.32 | 1.28 | 9.19 | 1.18 | 6.44 |  |  | 1.33 | 8.81 | 1.14 | 7.06 | 0.436 | 21.3 | 2.34 | 27.9 |  | 
CN(Cc1cnc(N)nc1N)c1ccc(C(=O)O)cc1 | > 100 | > 100 | > 100 | > 100 | > 100 | > 100 | > 100 | > 100 | > 100 | > 100 | > 100 | > 100 | > 100 | > 100 | > 100 | > 100 | > 100 | > 100
O=C(/C=C1\C(=O)N(Cc2ccc([N+](=O)[O-])cc2)c2ccccc21)c1ccc(OCCN2CCCCC2)cc1 | 1.59 | 3.11 | 1.44 | 2.79 |  |  | 0.456 | 2.73 | 3.14 | 21.4 | 0.366 | 1.43 | 1.19 | 2.48 |  |  |  | 
